Measured values: US9302999B2, “Substituted triazoles as herbicides” (E. I. DU PONT DE NEMOURS AND COMPANY, priority 2012, dated 2016)

Tests used:
Assay type in all cases: in vivo
[1] = test system: corn (Zea mays); assay: Test C pre-/postemergence: corn
Procedure, shortened: (§1)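 Preemergence on seeds in loam/sand, postemergence on 2–18 cm (1–4-leaf) plants in peat-based medium; compounds in non-phytotoxic solvent with surfactant. After 13–15 days in greenhouse, visual rating versus controls, 0 (no effect) to 100 (complete control).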

[2] = test system: ragweed (common ragweed, Ambrosia elation); assay: Test C pre-/postemergence: ragweed
Procedure, shortened: as §1

[3] = test system: ryegrass, Italian (Italian ryegrass, Lolium multiflorum); assay: Test C pre-/postemergence: ryegrass, Italian
Procedure, shortened: as §1

[4] = test system: wheat (Triticum aestivum); assay: Test A pre-/postemergence: wheat
Procedure, shortened: (§2)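 Rating scale 0–100 (100 = complete control), visual, ~10 days after application in the greenhouse. Applications: preemergence directed soil spray; postemergence at 1–2 leaves.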

[5] = test system: johnsongrass (Sorghum halepense); assay: Test C pre-/postemergence: johnsongrass
Procedure, shortened: as §1

[6] = test system: morningglory (Ipomoea spp.); assay: Test A pre-/postemergence: morningglory
Procedure, shortened: as §2

[7] = test system: wild oat (Avena fatua); assay: Test C pre-/postemergence: wild oat
Procedure, shortened: as §1

[8] = test system: chickweed (common chickweed, Stellaria media); assay: Test C postemergence: chickweed
Procedure, shortened: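 Greenhouse pot test; foliar postemergence treatment at 1- to 4-leaf stage. Rated visually at 13 to 15 days on a 0–100 control scale relative to untreated plants.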

[9] = test system: pigweed (Amaranthus retroflexus); assay: Test A pre-/postemergence: pigweed
Procedure, shortened: as §2

[10] = test system: corn (Zea mays); assay: Test A pre-/postemergence: corn; conditions: for Corn plant response rating: Postemergence; for Plant response rating, Corn: Preemergence
Procedure, shortened: as §2

[11] = test system: large crabgrass (Digitaria sanguinalis); assay: Test C pre-/postemergence: large crabgrass
Procedure, shortened: as §1

[12] = test system: morningglory (Ipomoea coccinea); assay: Test C pre-/postemergence: morningglory
Procedure, shortened: as §1

[13] = Postemergence, 31 g ai/ha, scale 0 to 100 (0 no effect, 100 complete control)
[14] = Postemergence, 62 g ai/ha, scale 0 to 100 (0 no effect, 100 complete control)
[15] = Postemergence, 250 g ai/ha, scale 0 to 100
[16] = Preemergence, 31 g ai/ha, scale of 0 to 100, 0 is no effect, 100 is complete control
[17] = Preemergence, 62 g ai/ha, scale of 0 to 100, 0 is no effect, 100 is complete control
[18] = Preemergence, 125 g ai/ha, scale 0 to 100, 0 no effect, 100 complete control
[19] = Preemergence, 250 g ai/ha, scale 0 to 100, 0 no effect, 100 complete control
[20] = Postemergence, 125 g ai/ha, scale 0 to 100, 0 no effect, 100 complete control
[21] = Postemergence, 125 g ai/ha, 0 to 100 scale, 0 is no effect, 100 is complete control
[22] = Postemergence, 500 g ai/ha, visual rating on 0 to 100 scale (0 no effect, 100 complete control), approximately ten days
[23] = Preemergence, 125 g ai/ha, 0 to 100 scale where 0 is no effect and 100 is complete control
[24] = Preemergence, 500 g ai/ha, 0 to 100 scale (0 no effect, 100 complete control)

For `Cc1nn(-c2ccc(F)c(F)c2)nc1Oc1ccnc(C(F)(F)F)c1` [Compound 145], the “Plant response rating, Corn” value [1, 13] was 35, the “Plant response rating, Corn” value [1, 14] was 45 and the “Plant response rating, Corn” value [1, 15] was 50. For the same molecule, the “Plant response rating, Corn” value [1, 16] was 0, the “Plant response rating, Corn” value [1, 17] was 10 and the “Plant response rating, Corn” value [1, 18] was 25. For the same molecule, the “Plant response rating, Corn” value [1, 19] was 60, the “Plant response rating, Ragweed” value [2, 13] was 60 and the “Plant response rating, Ragweed” value [2, 20] was 70. The “Plant response rating, Ragweed” value [2, 15] was 70, the “Plant response rating, Ragweed” value [2, 16] was 0 and the “Plant response rating, Ragweed” value [2, 17] was 10. For the same molecule, the “Plant response rating, Ragweed” value [2, 18] was 40, the “Plant response rating, Ragweed” value [2, 19] was 55 and the “Plant response rating, Ryegrass, Italian” value [3, 13] was 20. For the same molecule, the “Plant response rating, Ryegrass, Italian” value [3, 14] was 30, the “Plant response rating, Ryegrass, Italian” value [3, 20] was 40 and the “Plant response rating, Ryegrass, Italian” value [3, 15] was 50. The “Plant response rating, Ryegrass, Italian” value [3, 16] was 5, the “Plant response rating, Ryegrass, Italian” value [3, 17] was 35 and the “Plant response rating, Ryegrass, Italian” value [3, 18] was 90. The “Plant response rating, Ryegrass, Italian” value [3, 19] was 90, the “Plant response rating, Wheat” value [4, 21] was 20 and the “Wheat plant response rating” value [4, 22] was 50. The “Plant response rating, Wheat” value [4, 23] was 20, the “Plant response rating, Wheat” value [4, 24] was 60 and the “Plant response rating, Johnsongrass” value [5, 13] was 10. The “Plant response rating, Johnsongrass” value [5, 14] was 20, the “Plant response rating, Johnsongrass” value [5, 20] was 70 and the “Plant response rating, Johnsongrass” value [5, 15] was 75. For the same molecule, the “Plant response rating, Johnsongrass” value [5, 16] was 0, the “Plant response rating, Johnsongrass” value [5, 17] was 35 and the “Plant response rating, Johnsongrass” value [5, 18] was 100. The “Plant response rating, Johnsongrass” value [5, 19] was 100, the “Plant response rating, Morningglory” value [6, 21] was 100 and the “Morningglory plant response rating” value [6, 22] was 100. The “Plant response rating, Morningglory” value [6, 23] was 10, the “Plant response rating, Morningglory” value [6, 24] was 60 and the “Plant response rating, Oat, Wild” value [7, 13] was 20. For the same molecule, the “Plant response rating, Oat, Wild” value [7, 14] was 40, the “Plant response rating, Oat, Wild” value [7, 20] was 60 and the “Plant response rating, Oat, Wild” value [7, 15] was 80. For the same molecule, the “Plant response rating, Oat, Wild” value [7, 16] was 45, the “Plant response rating, Oat, Wild” value [7, 17] was 70 and the “Plant response rating, Oat, Wild” value [7, 18] was 90. The “Plant response rating, Oat, Wild” value [7, 19] was 90, the “Plant response rating, Chickweed” value ([8]; 31 g ai/ha, scale 0 to 100 (0 no effect, 100 complete control)) was 75 and the “Plant response rating, Chickweed” value ([8]; 62 g ai/ha, scale 0 to 100 (0 no effect, 100 complete control)) was 85. The “Plant response rating, Chickweed” value ([8]; 125 g ai/ha, scale 0 to 100, 0 no effect, 100 complete control) was 98, the “Plant response rating, Chickweed” value ([8]; 250 g ai/ha, scale 0 to 100) was 100 and the “Plant response rating, Pigweed” value [9, 21] was 100. The “Pigweed plant response rating” value [9, 22] was 100, the “Plant response rating, Pigweed” value [9, 23] was 100 and the “Plant response rating, Pigweed” value [9, 24] was 100. The “Corn plant response rating” value ([10]; 125 g ai/ha, 0 to 100 scale, 0 is no effect, 100 is complete control) was 40, the “Corn plant response rating” value ([10]; 500 g ai/ha, visual rating on 0 to 100 scale (0 no effect, 100 complete control), approximately ten days) was 90 and the “Plant response rating, Corn” value ([10]; 125 g ai/ha, 0 to 100 scale where 0 is no effect and 100 is complete control) was 10. For the same molecule, the “Plant response rating, Corn” value ([10]; 500 g ai/ha, 0 to 100 scale (0 no effect, 100 complete control)) was 40, the “Plant response rating, Crabgrass, Large” value [11, 13] was 25 and the “Plant response rating, Crabgrass, Large” value [11, 14] was 50. The “Plant response rating, Crabgrass, Large” value [11, 20] was 85, the “Plant response rating, Crabgrass, Large” value [11, 15] was 95 and the “Plant response rating, Crabgrass, Large” value [11, 16] was 98. For the same molecule, the “Plant response rating, Crabgrass, Large” value [11, 17] was 100, the “Plant response rating, Crabgrass, Large” value [11, 18] was 100 and the “Plant response rating, Crabgrass, Large” value [11, 19] was 100. For the same molecule, the “Plant response rating, Morningglory” value [12, 13] was 90, the “Plant response rating, Morningglory” value [12, 14] was 90 and the “Plant response rating, Morningglory” value [12, 20] was 95. The “Plant response rating, Morningglory” value [12, 15] was 98, the “Plant response rating, Morningglory” value [12, 16] was 15 and the “Plant response rating, Morningglory” value [12, 17] was 20. For the same molecule, the “Plant response rating, Morningglory” value [12, 18] was 70 and the “Plant response rating, Morningglory” value [12, 19] was 85.
